Source: patent US4504469A, “Vasotocin derivatives” (priority 1982, dated 1985)
Where a SMILES comes first, the peptide text is derived from it. Bridges are numbered along the chain shown (N, C = ends). [ ]: non-standard residue; d: D form. Mpa = O=C(O)CCS

How the values were obtained:
[1] = system: rat uterus in vivo; assay: In vivo inhibition of oxytocin-induced uterus contractions in rats, compared with Antocin; settings: anaesthetized rats, oxytocin infusion i.v., antagonist 0.8-8.0 μg/100 g i.v.; Antocin given the value 1
Protocol: Sprague Dawley rats (250 g) in natural estrous were anaesthetized with Inactin (0.5 mg/100 g body weight i.p.). Myometrial activity was recorded by means of a catheter fixed in the uterine cavity and filled with modified Locke's solution. The catheter was connected to a Statham P23d transducer, and contractions were recorded on a Grass polygraph (model 7d). Oxytocin was infused intravenously (0.05 μg/min/100 g body weight). When a regular contraction pattern had been obtained, the antagonist (0.8-8.0 μg/100 g body weight) was administered intravenously in a volume of 0.2 ml. The recorded curve was integrated over 15 min intervals immediately before and after injection of the antagonist. The inhibition of the increase in the magnitude of the uterus contractions caused by oxytocin infusion were compared with the inhibition of the Antocin which was given the value 1.

[2] = Antidiuretic effect (AD); set-up: unit not given here
[3] = Pressor effect (effect on the blood pressure); set-up: reference not given here
[4] = system: isolated rat uterus; type: cell-based
Protocol: The compounds according to the invention were investigated with regard to uterotonic potency on isolated rat uterus, using oxytocin as standard. The antagonistic properties of the compounds were also evaluated with the aid of this preparation. Also in vivo tests using oxytocin as the agonist were carried out, the results being compared with those obtained with Antocin.
Sprague Dawley rats (body weight approximately 250 g) in natural estrous were selected by vaginal smears. An approximately 20 mm long segment was cut from the middle of a uterine horn and mounted in an organ bath containing 10 ml of a modified Locke's solution of the following composition (mM:NaCl 153, KCl 5.63, CaCl2 0.541, NaHCO3 5.95 and glucose 2.78). The solution was gassed with 5% CO2 in oxygen at 30° C. The uterine contractions were allowed to stabilize for 30 min. Contractions were recorded isometrically at a resting tension of 1.5 g using Grass force transducers (Ft. 03). The antagonistic potency of the analogs was calculated as pA2 values (Rudinger, J. & Krejci, I. Experientia 18, (1962), 585-588). pA2 is a measure of the inhibitory effect of the peptide and was defined by Schild (Schild, H. O., British Journal of Pharmacology, 2, (1947), 189-206) as the negative logarithm of the molar concentration of an antagonist which reduces the effect of a dose of agonist to that of half the dose. The agonistic effects, if any, of the antagonists were investigated by adding to the bath containing the uterus preparation a varying amount of peptide corresponding at most to a concentration of 4 μg per ml.

CC[C@H](C)[C@@H]1NC(=O)[C@@H](Cc2c[nH]c3ccccc23)NC(=O)CCSSC[C@@H](C(=O)N2CCC[C@H]2C(=O)N[C@@H](CCCNC(=N)N)C(=O)NCC(N)=O)NC(=O)[C@H](CC(N)=O)NC(=O)[C@H](C(C)C)NC1=O [Example 8, 1-β-mercaptopropionic acid-2-D-tryptophane-4-valine-8-arginine vasotocin] ([Mpa][dW]IVNCPRG-NH2; disulfide 1-6)
Uterus in vivo, compared with Antocin [1]: 11
AD (antidiuretic effect) [2]: 0.1
Pressor (effect on the blood pressure) [3]: 0.12
Uterus in vitro antagonist pA2 [4]: 8.4
